Read-outs that look alike come from different tables or passages of the source. Non-standard residues stand in square brackets, D forms with d. Residues, ends and D or L forms follow the SMILES beside them. *: point of attachment. Propionyl = CCC(=O)*
System: S. aureus JAR
Format: cell-based
Procedure: S. aureus JAR is described in Campoccia et al. (Int. J. Artif. Organs, 2008 September; 31(9):841-7).
For the in vitro killing assay with P10 variants, S. aureus JAR ([…] CFU/ml) were incubated for 2 hours at 37° C. with various concentrations of the peptides in PBS or in PBS/human plasma (1/1, v/v). […] The LC99.9 is the average value of two independent experiments.

Molecule | LC99.9 (μM) (50% plasma) (JAR, 2 h) | LC99.9 (μM) (PBS) (JAR, 2 h) | LC99.9 (μM) (50% plasma) (S. aureus JAR, 2 hours at 37° C. in PBS/human plasma (1/1, v/v), concentration killing 99.9% of the bacteria, average of two experiments) | LC99.9 (μM) (PBS) (S. aureus JAR, 2 hours at 37° C. in PBS, concentration killing 99.9% of the bacteria, average of two experiments) | antimicrobial activity, in words (statements referring to Tables 2-6)
CC[C@H](C)[C@H](NC(=O)[C@H](CCCCN)NC(=O)[C@H](CCCCN)NC(=O)[C@H](Cc1ccc(O)cc1)NC(=O)[C@H](CCC(=O)O)NC(=O)[C@H](CCCNC(=N)N)NC(=O)[C@H](C)NC(=O)[C@H](CC(C)C)NC(C)=O)C(=O)N[C@H](C(=O)N[C@@H](CCC(=O)O)C(=O)N[C@@H](CCCCN)C(=O)N[C@@H](CC(C)C)C(=O)N[C@@H](CCCCN)C(=O)N[C@@H](CCCNC(=N)N)C(=O)N[C@@H](Cc1c[nH]c2ccccc12)C(=O)N[C@@H](CC(C)C)C(=O)N[C@@H](CCCNC(=N)N)C(=O)N[C@@H](CCC(N)=O)C(=O)N[C@@H](C(=O)N[C@@H](CC(C)C)C(=O)N[C@@H](CCCNC(=N)N)C(=O)N[C@H](C(=O)N[C@@H](CC(C)C)C(=O)N[C@@H](CCCNC(=N)N)C(N)=O)[C@@H](C)O)C(C)C)C(C)C [Peptide 1301-19, JLAREYKKIVEKLKRWLRQvLRTLRB] (Ac-LAREYKKIVEKLKRWLRQ[dV]LRTLR-NH2) | 32.0 µM | 0.6 µM | – | – | –
CCC(=O)N[C@@H](CC(C)C)C(=O)N[C@@H](C)C(=O)N[C@@H](CCCNC(=N)N)C(=O)N[C@@H](CCC(=O)O)C(=O)N[C@@H](Cc1ccc(O)cc1)C(=O)N[C@@H](CCCCN)C(=O)N[C@@H](CCCCN)C(=O)N[C@H](C(=O)N[C@H](C(=O)N[C@@H](CCC(=O)O)C(=O)N[C@@H](CCCCN)C(=O)N[C@@H](CC(C)C)C(=O)N[C@@H](CCCCN)C(=O)N[C@@H](CCCNC(=N)N)C(=O)N[C@@H](Cc1c[nH]c2ccccc12)C(=O)N[C@@H](CC(C)C)C(=O)N[C@@H](CCCNC(=N)N)C(=O)N[C@@H](CCC(N)=O)C(=O)N[C@H](C(=O)N[C@@H](CC(C)C)C(=O)N[C@@H](CCCNC(=N)N)C(=O)N[C@H](C(=O)N[C@@H](CC(C)C)C(=O)N[C@@H](CCCNC(=N)N)C(N)=O)[C@@H](C)O)C(C)C)C(C)C)[C@@H](C)CC [Peptide 1302-11, ULAREYKKIVEKLKRWLRQVLRTLRB] (Propionyl-LAREYKKIVEKLKRWLRQVLRTLR-NH2) | – | – | 102.4 µM | 1.6 µM | –
Ac-LAREYKKIVEKAKRWLRQVLRTLR-NH2 [Peptide 1302-36, JLAREYKKIVEKAKRWLRQVLRTLRB] | 76.8 µM | 3.2 µM | – | – | –
Ac-LAREYKKIVEKLKRWLRQVLHTLR-NH2 [Peptide 1302-51, JLAREYKKIVEKLKRWLRQVLHTLRB] | 102.4 µM | 1.6 µM | – | – | –
Ac-LAKEYKKIVEKLKRWLRQVLRTLR-NH2 [Peptide 1302-23, JLAKEYKKIVEKLKRWLRQVLRTLRB] | 102.4 µM | 1.6 µM | – | – | –
CC[C@@H](C)[C@@H](NC(=O)[C@@H](CCCCN)NC(=O)[C@@H](CCCCN)NC(=O)[C@@H](Cc1ccc(O)cc1)NC(=O)[C@@H](CCC(=O)O)NC(=O)[C@@H](CCCNC(=N)N)NC(=O)[C@@H](C)NC(=O)[C@@H](CC(C)C)NC(C)=O)C(=O)N[C@@H](C(=O)N[C@H](CCC(=O)O)C(=O)N[C@H](CCCCN)C(=O)N[C@H](CC(C)C)C(=O)N[C@H](CCCCN)C(=O)N[C@H](CCCNC(=N)N)C(=O)N[C@H](Cc1c[nH]c2ccccc12)C(=O)N[C@H](CC(C)C)C(=O)N[C@H](CCCNC(=N)N)C(=O)N[C@H](CCC(N)=O)C(=O)N[C@@H](C(=O)N[C@H](CC(C)C)C(=O)N[C@H](CCCNC(=N)N)C(=O)N[C@@H](C(=O)N[C@H](CC(C)C)C(=O)N[C@H](CCCNC(=N)N)C(N)=O)[C@H](C)O)C(C)C)C(C)C [Peptide 1313-07, JlareykkiveklkrwlrqvlrtlrB] (Ac-[dL][dA][dR][dE][dY][dK][dK][dI][dV][dE][dK][dL][dK][dR][dW][dL][dR][dQ][dV][dL][dR][dT][dL][dR]-NH2) | 25.6 µM | 1.6 µM | – | – | possesses antimicrobial activity
Ac-LVREYKKIVEKLKRWLRQVLRTLR-NH2 [Peptide 1302-21, JLVREYKKIVEKLKRWLRQVLRTLRB] | 76.8 µM | 1.2 µM | – | – | –
Ac-LAREYHKIVEKLKRWLRQVLRTLR-NH2 [Peptide 1302-28, JLAREYHKIVEKLKRWLRQVLRTLRB] | 102.4 µM | 1.2 µM | – | – | –
